Measurements reported in patent US6596772B1, “Phosphate mimics and methods of treatment using phosphatase inhibitors” (Sugen, Inc., priority 1999, dated 2003).

Tests used:
Assay in all cases: PTP IC50 assay, fluorescent substrate DiFMUP
Assay type in all cases: biochemical
PTP 1B = target: T1, PTP 1B (Homo sapiens, UniProt P18031); details: DiFMUP as substrate, 25° C.; read-out: PTP IC50 1B
T1 construct: made in house; host or cells: Sf-9 insect cells (pFastBac-G2T)
T1 sequence (P18031 1-435): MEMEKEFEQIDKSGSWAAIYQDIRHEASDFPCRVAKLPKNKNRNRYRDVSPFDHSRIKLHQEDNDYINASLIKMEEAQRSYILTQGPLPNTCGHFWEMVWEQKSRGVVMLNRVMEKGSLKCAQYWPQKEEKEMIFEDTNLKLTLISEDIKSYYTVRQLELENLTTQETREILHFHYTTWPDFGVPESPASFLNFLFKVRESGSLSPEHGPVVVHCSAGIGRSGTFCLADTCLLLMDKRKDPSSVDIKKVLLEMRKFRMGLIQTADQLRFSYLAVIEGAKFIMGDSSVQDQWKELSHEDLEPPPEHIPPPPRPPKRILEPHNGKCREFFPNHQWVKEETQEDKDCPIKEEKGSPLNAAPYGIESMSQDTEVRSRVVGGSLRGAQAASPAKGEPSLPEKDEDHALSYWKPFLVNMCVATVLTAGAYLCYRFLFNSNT
Text: The PTP1b cDNA was amplified from human placenta single strand cDNA (Clontech RNA) using the following oligonucleotides: 5′oligo: 5′-[…] (SEQ ID NO: 4) 3′oligo: 5′-[…] (SEQ ID NO: 5) It was subsequently ligated into pFasBac G2TBamH1Xba-1 sites.
(§1) The following in vitro assay procedure is preferred to determine the level of activity and effect of the different compounds of the present invention on one or more of the PTPs. Similar assays can be designed along the same lines for any PTP using techniques well known in the art.
(§2) The catalytic assays described herein are performed in a 96-well format. The general procedure begins with the determination of PTP optimal pH using a three-component buffer system that minimizes ionic strength variations across a wide range of buffer pH. Next, the Michaelis-Menten constant, or Km, is determined for the substrate 6,8-difluoro-4-methylumbelliferyl phosphate (DiFMUP). This Km value is subsequently used as the substrate reaction concentration for compound screening. Finally, the test PTP is exposed to varying concentrations of compound for fifteen minutes and allowed to react with substrate for ten minutes. The results are plotted as percent inhibition versus compound concentration and the IC50 interpolated from the plot.
(§3) All assays were performed using DiFMUP as substrate. The optimum pH and substrate Km was determined for each PTP used.
(§4) PTPase activity was assayed at 25° C. in a 100-μl reaction mixture containing an appropriate concentration of DiFMUP as substrate. The reaction was initiated by addition of the purified PTP and quenched after 10 min by addition of 1% H2O2/100 mM NaCl. The non-enzymatic hydrolysis of the substrate was corrected by measuring the control without the addition of the enzyme. The amount of DiFMU produced was determined from the increase in the fluorescence (360 nm excitation/460 nm emission) over that of background in the absence of PTPase. To determine the kinetic parameter, Km, the initial velocities were measured at various substrate concentrations and the data were fitted to the Michaelis equation where velocity=(Vmax*[S])/(Km+[S]), and [S]=substrate reaction concentration.
(§5) The effect of the compounds on PTP was evaluated at 25° C. using DiFMUP as substrate. PTP was pre-incubated for fifteen minutes with various concentrations of compound. Substrate was then added at a fixed concentration (usually equal to the Km previously calculated). After 10 minutes, the reaction was quenched. The hydrolysis of DiFMUP was followed as described above. The percent inhibition was calculated as follows: Percent Inhibition=[(control signal−compound signal)/control signal]×100%. The IC50 was then determined by interpolation of a percent inhibition versus compound concentration plot.
(§6) Plasmids designed for bacterial GST-PTP fusion protein expression were derived by insertion of PCR-generated human PTP fragments into pGEX vectors (Pharmacia Biotech). Several of these constructs were then used to subclone phosphatases into pFastBac-1 for expression in Sf-9 insect cells. Oligonucleotides used for the initial amplification of PTP genes are as described above. The cDNAs were prepared using the Gilbo BRL superscript preamplification system on RNAs purchased from Clontech.

PTP SHP2 = target: T2, PTP SHP2 (Homo sapiens, UniProt Q06124); details: DiFMUP as substrate, 25° C.; read-out: PTP IC50 SHP2
T2 construct: The catalytic domain was amplified using the following oligonucleotides; made in house; host or cells: Sf-9 insect cells (pFastBac-G2T)
T2 sequence (Q06124 247-517 limits assumed): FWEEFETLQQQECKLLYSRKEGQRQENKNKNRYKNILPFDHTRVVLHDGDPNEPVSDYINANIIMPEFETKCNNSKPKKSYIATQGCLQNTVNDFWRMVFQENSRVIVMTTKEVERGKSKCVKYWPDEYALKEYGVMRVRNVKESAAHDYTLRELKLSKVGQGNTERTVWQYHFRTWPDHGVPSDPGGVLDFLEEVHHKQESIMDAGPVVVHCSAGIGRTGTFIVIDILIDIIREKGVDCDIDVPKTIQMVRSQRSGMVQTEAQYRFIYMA
Text: SHP-2 cDNA was used as described earlier (Vogel W., et al.,1993, Science, 259:1611-4). The catalytic domain was amplified using the following oligonucleotides 5′oligo: 5′-[…]-3′ (SEQ ID NO: 2) 3′oligo: 5′-[…]-3′ (SEQ ID NO: 3) and subsequently subcloned into BamH1-Xba-1 sites. It was then ligated into pfas Bac-G2T BamH1-Xba-1 sites.
as §1, §2, §3, §4, §5, §6

PTP EPSILON = target: T3, PTP EPSILON (Homo sapiens, UniProt P23469); details: DiFMUP as substrate, 25° C.; read-out: PTP IC50 Epilson
T3 construct: made in house; host or cells: Sf-9 insect cells (pFastBac-G2T); a pGEX 6P-1 construct also existed
Text: The PTPepsilon cDNA was amplified from human placenta single-strand cDNA (Clontech RNA) using the following oligonucleotides: 5′oligo: 5′-[…]-3′ (SEQ ID NO: 6) 3′oligo: 5′-[…]-3′ (SEQ ID NO: 7) After cloning this PCR product into the Bam HI/Xho I sites of pGEX 6P-1, this phosphatase was subcloned using the same restriction sites in pFastBac-G2T.
as §1, §2, §3, §4, §5, §6

T3 sequence (P23469 80-393 limits assumed): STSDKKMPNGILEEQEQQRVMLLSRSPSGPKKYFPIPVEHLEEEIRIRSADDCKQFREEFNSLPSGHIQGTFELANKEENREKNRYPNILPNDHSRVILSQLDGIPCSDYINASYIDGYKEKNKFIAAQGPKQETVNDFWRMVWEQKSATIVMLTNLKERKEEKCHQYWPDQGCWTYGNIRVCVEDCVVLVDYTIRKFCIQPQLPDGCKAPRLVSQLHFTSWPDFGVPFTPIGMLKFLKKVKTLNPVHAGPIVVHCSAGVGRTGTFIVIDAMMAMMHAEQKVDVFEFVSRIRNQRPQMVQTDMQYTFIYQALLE

Row | Structure (SMILES) | IC50 (PTP 1B) | IC50 (PTP SHP2) | IC50 (PTP EPSILON)
1 | Cn1c(C(=O)O)cc2cc(NS(=O)(=O)C(F)(F)F)ccc21 [Example 78, 1-Methyl-5-trifluoromethanesulfonylamino-1H-indole-2-carboxylic acid] | > 100 µM | > 100 µM | > 100 µM
2 | Cc1cc2cc(NS(=O)(=O)C(F)(F)F)ccc2n1CC(=O)O [Example 79, (2-Methyl-5-trifluoromethanesulfonylamino-indol-1-yl)-acetic acid] | > 100 µM | > 100 µM | > 20 µM
3 | Cn1c(C(=O)Nc2ccccc2)cc2cc(NS(=O)(=O)C(F)(F)F)ccc21 [Example 80, 1-Methyl-5-trifluoromethanesulfonylamino-1H-indole-2-carboxylic acid phenylamide] | > 20 µM | 58.1 µM | 26.9 µM
4 | O=C(Nc1ccccc1)c1cc2cc(NS(=O)(=O)C(F)(F)F)ccc2[nH]1 [Example 81, 5-Trifluoromethanesulfonylamino-1H-indole-2-carboxylic acid phenylamide] | 14.6 µM | 6.2 µM | 4.4 µM
5 | Cn1c(C(=O)Nc2cccc(C(=O)O)c2)cc2cc(NS(=O)(=O)C(F)(F)F)ccc21 [Example 82, 3-[(1-Methyl-5-trifluoromethanesulfonylamino-1H-indole-2-carbonyl)-amino]-benzoic acid] | > 20 µM | 87.7 µM | 7.7 µM
6 | O=C(O)c1cccc(NC(=O)c2cc3cc(NS(=O)(=O)C(F)(F)F)ccc3[nH]2)c1 [Example 83, 3-[(5-Trifluoromethanesulfonylamino-1H-indole-2-carbonyl)-amino]-benzoic acid] | > 20 µM | 58.5 µM | 8.4 µM
7 | O=C(O)c1ccc(NC(=O)c2cc3cc(NS(=O)(=O)C(F)(F)F)ccc3[nH]2)cc1 [Example 84, 4-[(5-Trifluoromethanesulfonylamino-1H-indole-2-carbonyl)-amino]-benzoic acid] | > 20 µM | 62 µM | 16.1 µM
8 | Cc1cc2cc(NS(=O)(=O)C(F)(F)F)ccc2n1CC(=O)Nc1cccc(C(=O)O)c1 [Example 86, 3-[2-(2-Methyl-5-trifluoromethanesulfonylamino-indol-1-yl)-acetylamino]-benzoic acid] | > 20 µM | > 100 µM | > 20 µM
9 | Cc1cc2cc(NS(=O)(=O)C(F)(F)F)ccc2n1CC(=O)NCc1ccc(C(=O)O)cc1 [Example 87, 4-{[2-(2-Methyl-5-trifluoromethanesulfonylamino-indol-1-yl)-acetylamino]-methyl}-benzoic acid] | > 20 µM | 97 µM | > 20 µM
10 | Cc1cc2cc(NS(=O)(=O)C(F)(F)F)ccc2n1CC(=O)OC(C)(C)C [Example 88, (2-Methyl-5-trifluoromethanesulfonylamino-indol-1-yl)-acetic acid tert-butyl ester] | > 20 µM | 31.4 µM | 8.2 µM
11 | CCOC(=O)c1cc2cc(NS(=O)(=O)C(F)(F)F)ccc2n1C [Example 89, 1-Methyl-5-trifluoromethanesulfonylamino-1H-indole-2-carboxylic acid ethyl ester] | > 20 µM | 69 µM | > 20 µM
12 | O=C(O)c1ccc2cc(NS(=O)(=O)C(F)(F)F)ccc2c1 [Example 90, 6-Trifluoromethanesulfonylamino-naphthalene-2-carboxylic acid] | > 20 µM | 64 µM | 35.9 µM
13 | O=C(O)c1ccc2cc(CN(Cc3ccc4cc(C(=O)O)ccc4c3)S(=O)(=O)C(F)(F)F)ccc2c1 [Example 91, N,N-Bis[(6-carboxyl-naphthalen-2-yl)methyl]trifluoromethanesulfonamide] | > 20 µM | 25.9 µM | > 20 µM
14 | CN(Cc1ccc2cc(C(=O)O)ccc2c1)S(=O)(=O)C(F)(F)F [Example 92, 6-[(Methyl-trifluoromethanesulfonyl-amino)-methyl]-naphthalene-2-carboxylic acid] | > 20 µM | 48 µM | 5.1 µM
15 | CN(Cc1ccc2cc(C(=O)Nc3cccc(C(=O)O)c3)ccc2c1)S(=O)(=O)C(F)(F)F [Example 93, 3-({6-[(Methyl-trifluoromethanesulfonyl-amino)-methyl]-naphthalene-2-carbonyl}-amino)-benzoic acid] | 15.9 µM | 15.8 µM | 7.4 µM
16 | CCOC(=O)c1cc2cc(NS(=O)(=O)C(F)(F)F)ccc2n1CC(=O)OC(C)(C)C [Example 94, 1-tert-Butoxycarbonylmethyl-5-trifluoromethanesulfonylamino-1H-indole-2-carboxylic acid ethyl ester] | 12 µM | 1.5 µM | 4.2 µM
17 | CCOC(=O)c1cc2cc(NS(=O)(=O)C(F)(F)F)ccc2n1CC(=O)O [Example 95, 1-Carboxymethyl-5-trifluoromethanesulfonylamino-1H-indole-2-carboxylic acid ethyl ester] | > 100 µM | > 20 µM | > 100 µM
18 | CC(C)(C)OC(=O)Cn1c(C(=O)O)cc2cc(NS(=O)(=O)C(F)(F)F)ccc21 [Example 96, 1-tert-Butoxycarbonylmethyl-5-trifluoromethanesulfonylamino-1H-indole-2-carboxylic acid] | 34.7 µM | 9.1 µM | 31.2 µM
19 | O=C(O)Cn1c(C(=O)O)cc2cc(NS(=O)(=O)C(F)(F)F)ccc21 [Example 97, 1-Carboxymethyl-5-trifluoromethanesulfonylamino-1H-indole-2-carboxylic acid] | 44.2 µM | 6.1 µM | 62.9 µM
20 | CCOC(=O)c1cc2cc(N(S(=O)(=O)C(F)(F)F)S(=O)(=O)C(F)(F)F)ccc2n1CC(=O)O [Example 98, 1-Carboxymethyl-5-(N,N-ditrifluoromethanesulfonyl)amino-1H-indole-2-carboxylic acid ethyl ester] | > 100 µM | > 20 µM | 41.6 µM
